For assay [1], the target named is mitochondrial complex I (Homo sapiens, UniProt O75251+O75306+P03886). Put plainly: Mitochondrial complex I-driven oxygen consumption rate (Seahorse XF96) in permeabilized MiaPaCa-2 cells. It counts as cell-based. The conditions noted are these: 24 h treatment. As to the method:
FIG. 2. […] Relative complex I (1.5 mM malate, 10 mM pyruvate, 10 mM ADP)-driven OCR (left) and relative complex III (0.5 mM duroquinol, 10 mM ADP)-driven OCR (right) were monitored by XF-96 analyser. Either Rot (complex I inhibitor) or antimycin A (AA, complex III inhibitor) was acutely added and OCR assayed immediately. […] Dashed lines represent the fitting curves used for determination of the IC50 values.
Briefly, cells that were intact after treatments were immediately permeabilized using the Seahorse XF Plasma Membrane Permeabilizer (Agilent). The mitochondrial complex I-driven OCR was assayed in mannitol and sucrose buffer^31 containing 10 mM pyruvate and 1.5 mM malate (substrates for complex I) and 10 mM malonate (which inhibits complex II activities). The mitochondrial complex III-driven OCR was assayed in mannitol and sucrose buffer containing 0.5 mM duroquinol (substrate for complex III) and 1 μM Rot and 10 mM malonate (which inhibit both complex I and II activities). The mitochondrial complex-dependent oxygen consumption (calculated as Rot- or antimycin A-inhibitable OCR equals basal OCR less OCR after Rot or antimycin A injection) was plotted against concentrations to determine the IC50 values.

Assay [2] relates to A549 human lung cancer cells. Put plainly: A549 cell proliferation, IncuCyte. It counts as cell-based. From the text:
(§1) FIG. 3. […] Cell proliferation was monitored in real-time with the continuous presence of indicated treatments until the end of each experiment. The cell confluence (as control groups reach 98% confluency) is plotted against concentration. Dashed lines represent the fitting curves used to determine the IC50 values as indicated.
(§2) The IncuCyte Live-Cell Imaging system (IncuCyte Essen Bioscience Inc., Ann Arbor, MI) was used to monitor cell proliferation.^11-13 As shown in previous publications,^11,12 this imaging system is probe-free and noninvasive, and enables continuous monitoring of cell confluence over several days. The increase in the percentage of cell confluence was used as a surrogate marker of cell proliferation. In a 96-well plate, cells were plated at 1,000 cells per well in triplicates and left to adhere overnight.

The test system of assay [3] is LLC mouse lung cancer cells. Put plainly: LLC cell proliferation, IncuCyte. The assay is classed as cell-based.
Excerpt: as §1, §2

In assay [4] the test system is LKR13 mouse lung cancer cells. Put plainly: LKR13 cell proliferation, IncuCyte. The assay is classed as cell-based.
Excerpt: as §1, §2

In assay [5] the test system is mitochondrial complex I. Put plainly: Complex I-driven OCR in A549, LLC and LKR13 cells. The assay is classed as cell-based, human, mouse. The conditions noted are these: A549, LLC, LKR13 cells (FIG. 4). As to the method:
(§3) FIG. 4. […] Dashed lines represent the fitting curves used for determination of the IC50 values.
(§4) Mitochondrial bioenergetic function was measured in real time using the Seahorse XF 96 Extracellular Flux Analyzer (Agilent, North Billerica, MA).^11-13,22 The OCR-based assessment of mitochondrial complex activities was carried out on acutely permeabilized cells in the presence of different mitochondrial substrates, i.e., pyruvate/malate, for complex I and duroquinol for complex III.^11,14,31,32 Rot, malonate, and antimycin A (Sigma-Aldrich, St. Louis, MO) were used as specific inhibitors of mitochondrial complexes I, II, and III, respectively. Briefly, cells that were intact after treatments were immediately permeabilized using the Seahorse XF Plasma Membrane Permeabilizer (Agilent). The mitochondrial complex I-driven OCR was assayed in mannitol and sucrose buffer^31 containing 10 mM pyruvate and 1.5 mM malate (substrates for complex I) and 10 mM malonate (which inhibits complex II activities). […] The mitochondrial complex-dependent oxygen consumption (calculated as Rot- or antimycin A-inhibitable OCR equals basal OCR less OCR after Rot or antimycin A injection) was plotted against concentrations to determine the IC50 values.

For assay [6], the system named is mitochondrial complex III. Put plainly: Complex III-driven OCR in A549, LLC and LKR13 cells. The conditions noted are these: A549, LLC, LKR13 cells (FIG. 4). The assay is classed as cell-based, human, mouse. As to the method:
as §3, §4

Assay [7] relates to CD4+ T cells from SMARTA triple reporter mice. Put plainly: In vitro differentiation of CD4+ T regulatory cells, flow cytometry. It counts as cell-based, mouse. The source says:
FIG. 5. In vitro differentiation of CD4^+ T regulatory cells under varying concentrations of Mito-ATOs and controls. After six days of culture, cells were stained for flow cytometry analysis. (left) Live/dead staining to assess the percentage of live CD4+ T cells within the lymphocyte gate. (middle) Teff cell function is shown as the frequency of IFNγ-GFP positive cells within the live CD4^+ T cells. (right) The percentage of Treg cells is shown as the frequency of FoxP3^+CD25^+ cells within the live CD4^+ T cells.
After six days, cells were stained to assess viability, phenotype, and function using the flow cytometry.
Mice. SMARTA triple reporter mice were generated in the following manner. First, IL-10 and IL-21 double-reporter mice^33 were generated by cross-breeding IL-21tRFP mice^34-35 with 10 BiT mice (kindly provided by Dr. Casey Weaver, University of Alabama at Birmingham). Double reporter mice were then crossed with GREAT (interferon-gamma reporter with endogenous polyA transcript) mice^36 from Jackson Laboratory (Stock No. 017581). These triple-reporter mice were then crossed with SMARTA mice^37 (kindly provided by Dr. Dorian McGavern, National Institutes of Health). Mice were bred and maintained in a closed breeding facility, and mouse handling conformed to the requirements of the Medical College of Wisconsin Institutional Animal Care and Use Committee guidelines. All experimental protocols were approved by the Medical College of Wisconsin Institutional Animal Care and Use Committee.
Cell culture. To differentiate CD4^+ T cells into a T regulatory cell phenotype, splenocytes from SMARTA triple-reporter mice were processed and the red blood cell lysed using an ACK (ammonium-chloride-potassium) lysis buffer. The cells were then activated with 1 μg/mL […] peptide (GenScript, Piscataway, NJ) and 5 ng/mL TGF-β1 (Shenandoah Biotechnology, Inc., Warwick, PA). […] Cells were cultured for six days and split once cells reached confluency; cells were replenished with IL-2 and compound accordingly. After six days in culture, cells were stained to assess the viability and phenotypic analysis via flow cytometry. LIVE/DEAD fixable violet or aqua dead cell stain (Invitrogen, Carlsbad, CA) was used to assess cell viability. The following antibodies were used for flow cytometry staining: PercP anti-mouse CD4 (clone: GK1.5; BioLegend, San Diego, CA), APC/Cy7 anti-mouse CD25 (clone: PC61; BioLegend), and PE anti-mouse FOXP3 (clone: FJK-16S; eBioscience, San Diego, CA). Flow cytometry data were acquired using a BD LSRII (BD Biosciences, CA) flow cytometer and analysed using FlowJo (Treestar, Inc., Ashland, OR).
(Flow cytometry measures light scatter and fluorescence of single cells or particles in a stream.)

Chain of mitochondrial complex I (Homo sapiens, UniProt O75251+O75306+P03886) (O75306 34-463): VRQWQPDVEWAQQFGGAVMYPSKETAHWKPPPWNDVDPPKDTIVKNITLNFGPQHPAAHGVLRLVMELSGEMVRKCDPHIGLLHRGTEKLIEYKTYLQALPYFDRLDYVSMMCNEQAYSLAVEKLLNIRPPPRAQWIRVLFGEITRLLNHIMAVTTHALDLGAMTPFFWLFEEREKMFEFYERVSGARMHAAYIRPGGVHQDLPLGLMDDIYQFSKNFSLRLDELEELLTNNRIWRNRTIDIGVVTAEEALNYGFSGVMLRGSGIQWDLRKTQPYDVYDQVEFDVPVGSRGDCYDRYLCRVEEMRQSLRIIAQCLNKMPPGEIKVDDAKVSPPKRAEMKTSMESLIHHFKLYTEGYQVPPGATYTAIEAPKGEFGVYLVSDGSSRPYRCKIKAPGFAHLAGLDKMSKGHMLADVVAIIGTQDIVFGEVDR
Chain of mitochondrial complex I (Homo sapiens, UniProt O75251+O75306+P03886) (O75251 39-213): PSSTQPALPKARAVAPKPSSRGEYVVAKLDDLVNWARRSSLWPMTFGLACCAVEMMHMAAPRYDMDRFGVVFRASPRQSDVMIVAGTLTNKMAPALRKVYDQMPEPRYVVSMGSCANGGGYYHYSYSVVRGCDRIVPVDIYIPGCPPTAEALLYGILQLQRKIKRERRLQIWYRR
Chain of mitochondrial complex I (Homo sapiens, UniProt O75251+O75306+P03886) (P03886 whole entry): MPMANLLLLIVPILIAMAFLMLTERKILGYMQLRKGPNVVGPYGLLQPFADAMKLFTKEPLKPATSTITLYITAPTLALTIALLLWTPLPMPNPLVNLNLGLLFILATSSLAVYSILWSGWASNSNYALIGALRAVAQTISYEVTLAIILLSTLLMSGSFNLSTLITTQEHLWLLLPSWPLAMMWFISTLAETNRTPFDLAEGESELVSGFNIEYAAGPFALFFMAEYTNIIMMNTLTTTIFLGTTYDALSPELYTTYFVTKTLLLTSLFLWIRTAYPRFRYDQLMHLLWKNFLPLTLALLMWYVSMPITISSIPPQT

Take `O=C1C(OCCCCCCCCCC[P+](c2ccccc2)(c2ccccc2)c2ccccc2)=C([C@H]2CC[C@H](c3ccc(Cl)cc3)CC2)C(=O)c2ccccc21` [Mito10-ATO]: the “inhibition of complex I-induced oxygen consumption” value is “potently inhibit” at mitochondrial complex I [1]; “inhibited both mitochondrial complex I- and III-induced oxygen consumption” in the assay on mitochondrial complex I [5]. Further, the “effect on cell proliferation” value in assay [2], in assay [3] and in assay [4] was “effective at halting cell proliferation” each time. Also, the “inhibition of complex III-induced oxygen consumption” value in assay [6] is “inhibited both mitochondrial complex I- and III-induced oxygen consumption”. The “Treg (FoxP3+CD25+) differentiation and/or survival” value in assay [7] (six days culture with TGFβ and IL-2, ATO, butyl-ATO, decyl-ATO up to 60 μM) is listed as “inhibited Foxp3^+ Treg differentiation and/or survival”. Also, in assay [7] (six days culture, IFNγ-GFP positive cells within live CD4+ T cells), the “Teff cell IFNγ production” value is listed as “promoted Teff cell IFNγ production in a dose-dependent manner”.

(Values after patent US12594283B2 (The Medical College of Wisconsin, Inc., priority 2019, dated 2026).)
